Laboratory results reported in US20100063047A1 (KALYPSYS, INC., priority 2008, published 2010).

Tests used:
human H4 = molecular target: T1, human H4 (Homo sapiens, UniProt Q9H3N8); assay: In vitro histamine H4 receptor cell-based aequorin bioluminescence antagonist assay; conditions: CHO-K1 cells expressing human H4, aequorin and Gα16; histamine at EC80
T1 construct: host or cells: CHO-K1, also expressing mitochondrion-targeted aequorin and human Gα16
How it was run: (§1)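 CHO-K1 cells stably expressing human H1 or H4 plus mitochondrial aequorin (H4 also with Gα16), loaded with 5 μM coelenterazine-h for 4 h at ~21 °C. Compounds preincubated 15 min at room temperature, then histamine at EC80 added.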

human H1 = molecular target: T2, human H1 (Homo sapiens, UniProt P35367); assay: In vitro histamine H1 receptor cell-based aequorin bioluminescence antagonist assay; conditions: CHO-K1 cells expressing human H1 and aequorin; histamine at EC80; read-out: H1 Antagonist EC50
T2 construct: host or cells: CHO-K1, also expressing mitochondrion-targeted aequorin
T2 sequence (P35367 whole entry): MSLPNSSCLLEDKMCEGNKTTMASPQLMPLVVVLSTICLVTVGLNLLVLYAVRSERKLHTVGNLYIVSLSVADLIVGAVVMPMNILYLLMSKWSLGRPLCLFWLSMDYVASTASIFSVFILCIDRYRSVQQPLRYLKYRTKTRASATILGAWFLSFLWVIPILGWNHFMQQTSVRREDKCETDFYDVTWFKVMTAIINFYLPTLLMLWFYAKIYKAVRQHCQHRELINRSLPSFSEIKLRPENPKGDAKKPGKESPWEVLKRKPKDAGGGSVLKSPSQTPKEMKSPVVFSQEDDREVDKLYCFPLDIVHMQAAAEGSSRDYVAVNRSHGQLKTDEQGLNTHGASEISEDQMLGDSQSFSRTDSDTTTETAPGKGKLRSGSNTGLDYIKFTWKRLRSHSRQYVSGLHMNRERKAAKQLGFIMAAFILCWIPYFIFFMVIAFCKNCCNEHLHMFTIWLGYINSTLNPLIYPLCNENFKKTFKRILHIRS
How it was run: as §1

[1] = tested on: tissue eosinophil peroxidase (EPO); assay: Allergic conjunctivitis in passively sensitized guinea pigs, conjunctival EPO activity; type: in vivo; parameters: key: a test compound was assigned a “+” if a 0.01% bid dose was statistically equivalent to dexamethasone with respect to reduction of EPO activity; a “−” was assigned if the compound was statistically inferior to dexamethasone and not different than vehicle; conditions: reduction of conjunctival EPO activity 24 h after ovalbumin challenge, compared with 0.1% w/v dexamethasone, guinea pig; for BID activity: 0.01% bid topical dose (1 hour prior to and 8 hours after challenge); for QD activity: ≦0.1% qd topical dose (1 hour prior to challenge)
Procedure: Allergic Conjunctivitis in Passively Sensitized Guinea Pigs
Male Hartley VAF outbred guinea pigs were passively sensitized to ovalbumin by a single OD subconjunctival injection of undiluted guinea pig anti-ovalbumin antiserum 24 hours before OD topical challenge with 500 μg ovalbumin in saline. Control animals were injected with saline only and challenged with ovalbumin. To determine acute phase drug efficacy, 30 min after challenge animals were clinically scored by a masked observer for severity of signs of conjunctivitis based on a standard scale. Test compounds were administered topically 1 hour prior to challenge (QD protocol), or 1 hour prior to challenge and again 8 hours after challenge (BID protocol). Twenty-four hours after challenge, animals were euthanized and conjunctivae were harvested for determination of tissue eosinophil peroxidase (EPO) concentration as a marker of allergic inflammation. Homogenates of freshly collected tissues were prepared by shaking the tissues in 2 mL round-bottom tubes containing 0.5 mL of homogenization buffer (50 mM Tris HCl, pH 8.0, 6 mM KBr) and one 5-mm stainless steel bead on a Qiagen TissueLyser at 30 Hz for 5 min. Homogenates were frozen and thawed once, then centrifuged at 10,000 rpm for 5 min. EPO activity in supernatants was measured by reacting diluted homogenates with a solution of 6 mM o-phenylenediamine substrate and 8.8 mM H2O2 in homogenization buffer for 3 min. The reaction was stopped with 4M H2SO4 and absorbances were measured at 490 nm on a spectrophotometric plate reader. Total EPO in samples was calculated from a standard curve of recombinant human EPO in each assay. EPO activity was normalized to total protein concentration (Pierce BCA assay) in supernatants. Background EPO activity was determined from the unsensitized, antigen-challenged control group. Percent inhibition was calculated from the sensitized, antigen-challenged, vehicle-treated control group in each experiment. Ovalbumin-injected animals dosed topically with 0.1% w/v dexamethasone (dex) served as positive control. Groups were compared by ANOVA with Dunnett's or Tukey's post-hoc tests where appropriate with significance assigned at the 95% confidence level.
The table below summarizes the results.

EC50 (human H4) [µM] | EC50 (human H1) [µM] | SMILES | BID activity [1] | QD activity [1]
> 10 | > 10 | Clc1ccc(CCNc2nccc3sccc23)cc1 [Example 27, N-(4-chlorophenethyl)thieno[3,2-c]pyridin-4-amine] | + | −
 | > 10 | Clc1ccc(CCNc2ncnc3sccc23)cc1 [Example 45, N-[2-(4-chlorophenyl)ethyl]thieno[2,3-d]pyrimidin-4-amine] | + | −
> 10 | > 10 | COc1cccc(N2CCN(c3ncnc4scc(C)c34)CC2)c1 [Example 263, 1-(3-methoxyphenyl)-4-{5-methylthieno[2,3-d]pyrimidin-4-yl}piperazine] |  | 
> 10 | > 10 | Cc1csc2ncnc(N3CCC[C@@H]3CO)c12 [Example 194, [(2R)-1-{5-methylthieno[2,3-d]pyrimidin-4-yl}pyrrolidin-2-yl]methanol] |  | 
> 10 | > 10 | Cc1csc2ncnc(NCc3ccncc3)c12 [Example 86, 5-methyl-N-(pyridin-4-ylmethyl)thieno[2,3-d]pyrimidin-4-amine] |  | 
> 10 | > 10 | Cc1csc2ncnc(N3CCC(O)(c4ccc(Cl)cc4)CC3)c12 [Example 280, 4-(4-chlorophenyl)-1-{5-methylthieno[2,3-d]pyrimidin-4-yl}piperidin-4-ol] |  | 
> 10 | > 10 | CCN(CC)CCNc1ncnc2scc(C)c12 [Example 94, diethyl[2-({5-methylthieno[2,3-d]pyrimidin-4-yl}amino)ethyl]amine] |  | 
> 10 | > 10 | COc1ccc(CCN(C)c2ncnc3scc(C)c23)cc1OC [Example 264, N-[2-(3,4-dimethoxyphenyl)ethyl]-N,5-dimethylthieno[2,3-d]pyrimidin-4-amine] |  | 
> 10 | > 10 | Cc1csc2ncnc(NCCC3CCCN3C)c12 (stereo not shown) [Example 106, 5-methyl-N-[2-(1-methylpyrrolidin-2-yl)ethyl]thieno[2,3-d]pyrimidin-4-amine] |  | 
> 10 | > 10 | Cc1csc2ncnc(N3CCCN(Cc4ccccc4)CC3)c12 [Example 242, 1-benzyl-4-{5-methylthieno[2,3-d]pyrimidin-4-yl}-1,4-diazepane] |  | 
> 10 | > 10 | COCCNc1ncnc2scc(C)c12 [Example 64, N-(2-methoxyethyl)-5-methylthieno[2,3-d]pyrimidin-4-amine] |  | 
> 10 | > 10 | Cc1csc2ncnc(N(CCC#N)Cc3ccccc3)c12 [Example 153, 3-[benzyl({5-methylthieno[2,3-d]pyrimidin-4-yl})amino]propanenitrile] |  | 
> 10 | > 10 | Cc1csc2ncnc(NCc3cccnc3)c12 [Example 84, 5-methyl-N-(pyridin-3-ylmethyl)thieno[2,3-d]pyrimidin-4-amine] |  | 
> 10 | > 10 | Cc1csc2ncnc(N3CCN(c4cccc(Cl)c4)CC3)c12 [Example 265, 1-(3-chlorophenyl)-4-{5-methylthieno[2,3-d]pyrimidin-4-yl}piperazine] |  | 
> 10 | > 10 | CCN(CC)CCN(Cc1ccccc1)c1ncnc2scc(C)c12 [Example 272, N-benzyl-N-[2-(diethylamino)ethyl]-5-methylthieno[2,3-d]pyrimidin-4-amine] |  | 
> 10 | > 10 | Cc1csc2ncnc(NCCN3CCCCC3)c12 [Example 107, 5-methyl-N-[2-(piperidin-1-yl)ethyl]thieno[2,3-d]pyrimidin-4-amine] |  | 
> 10 | > 10 | CCC(C)Nc1ncnc2scc(C)c12 (stereo not shown) [Example 60, N-(butan-2-yl)-5-methylthieno[2,3-d]pyrimidin-4-amine] |  | 
> 10 | > 10 | Cc1csc2ncnc(NCC(C)C)c12 [Example 61, 5-methyl-N-(2-methylpropyl)thieno[2,3-d]pyrimidin-4-amine] |  | 

EC50 (human H4) [µM] | EC50 (human H1) [µM] | SMILES | BID activity [1] | QD activity [1]
> 10 | > 10 | Cc1csc2ncnc(N(CCO)[C@H](C)c3ccccc3)c12 [Example 236, 2-({5-methylthieno[2,3-d]pyrimidin-4-yl}[(1R)-1-phenylethyl]amino)ethan-1-ol] |  | 
> 10 | > 10 | Cc1csc2ncnc(N(C)CC(O)c3ccccc3)c12 (stereo not shown) [Example 227, 2-[methyl({5-methylthieno[2,3-d]pyrimidin-4-yl})amino]-1-phenylethan-1-ol] |  | 
> 10 | > 10 | CCN(c1ncnc2scc(C)c12)C1CCCCC1 [Example 210, N-cyclohexyl-N-ethyl-5-methylthieno[2,3-d]pyrimidin-4-amine] |  | 
> 10 | > 10 | Cc1csc2ncnc(NCCN3CCCC3)c12 [Example 92, 5-methyl-N-[2-(pyrrolidin-1-yl)ethyl]thieno[2,3-d]pyrimidin-4-amine] |  | 
> 10 | > 10 | Cc1csc2ncnc(N(Cc3cccnc3)Cc3cccnc3)c12 [Example 268, 5-methyl-N,N-bis(pyridin-3-ylmethyl)thieno[2,3-d]pyrimidin-4-amine] |  | 
> 10 | > 10 | CCCN(C)c1ncnc2scc(C)c12 [Example 182, N,5-dimethyl-N-propylthieno[2,3-d]pyrimidin-4-amine] |  | 
> 10 | > 10 | Cc1csc2ncnc(NCCCCO)c12 [Example 74, 4-({5-methylthieno[2,3-d]pyrimidin-4-yl}amino)butan-1-ol] |  | 
> 10 | > 10 | Cc1csc2ncnc(N(C)C3CCCCC3)c12 [Example 200, N-cyclohexyl-N,5-dimethylthieno[2,3-d]pyrimidin-4-amine] |  | 
> 10 | > 10 | Cc1csc2ncnc(N3CCN(c4ccccc4F)CC3)c12 [Example 245, 1-(2-fluorophenyl)-4-{5-methylthieno[2,3-d]pyrimidin-4-yl}piperazine] |  | 
> 10 | > 10 | Cc1csc2ncnc(N3Cc4ccccc4C3)c12 [Example 208, 2-{5-methylthieno[2,3-d]pyrimidin-4-yl}-2,3-dihydro-1H-isoindole] |  | 
> 10 | > 10 | Cc1csc2ncnc(N(C)CCO)c12 [Example 183, 2-[methyl({5-methylthieno[2,3-d]pyrimidin-4-yl})amino]ethan-1-ol] |  | 
> 10 | > 10 | Cc1csc2ncnc(NCCN)c12 [Example 55, N-(2-aminoethyl)-5-methylthieno[2,3-d]pyrimidin-4-amine] |  | 
 | > 10 | Cc1sc2ncnc(NCCc3ccccc3Cl)c2c1C [Example 43, N-[2-(2-chlorophenyl)ethyl]-5,6-dimethylthieno[2,3-d]pyrimidin-4-amine] | − | 
> 10 | > 10 | Cc1csc2ncnc(N3CCN(C4CCCCC4)CC3)c12 [Example 239, 1-cyclohexyl-4-{5-methylthieno[2,3-d]pyrimidin-4-yl}piperazine] |  | 
> 10 | > 10 | Cc1ccc(S(=O)(=O)NCCNc2ncnc3scc(C)c23)cc1 [Example 177, 4-methyl-N-[2-({5-methylthieno[2,3-d]pyrimidin-4-yl}amino)ethyl]benzene-1-sulfonamide] |  | 
> 10 | > 10 | Cc1csc2ncnc(N3CCN(C(=O)OC(C)(C)C)C[C@H]3CO)c12 [Example 283, tert-butyl (3S)-3-(hydroxymethyl)-4-{5-methylthieno[2,3-d]pyrimidin-4-yl}piperazine-1-carboxylate] |  | 
> 10 | > 10 | CCN(CC)c1ncnc2scc(C)c12 [Example 181, N,N-diethyl-5-methylthieno[2,3-d]pyrimidin-4-amine] |  | 
